Converted amounts (≈) assume the structure as drawn.

This is an account of results in US12338263B2, “Antibacterial aminoglycoside derivatives” (priority 2019, dated 2025).

One series deals with E. coli ATCC BAA-2523. The experiment in a line: Antibacterial effect (MIC), micro-liquid dilution method (CLSI). Conditions: Escherichia coli, ATCCBAA2523. In kind it is cell-based. Here is the method: (§1) Three strains Enterobacteriaceae E. coli ATCC 25922, E. coli ATCC BAA-2523, K. pneumonia ATCC BAA-1705 were used to determine the Minimum Inhibitory Concentration (MIC) of each compound by the micro-liquid dilution method according to the requirements of the Institute of Clinical and Laboratory Standard (CLSI). 2-fold series diluted compounds (with a final concentration range […]) were added to a round bottom 96-well plate (Catalog #3788, Corning). A single clone of fresh bacteria on the plate of Mueller Hinton II Agar (MHA, Cat. No. 211438, BD BBL™) after overnight culture was picked and suspended in sterile saline to adjust the concentration to 1×10^8 CFU/mL, and then diluted to 5×10^5 CFU/mL by Cation-Adjusted Mueller Hinton II Broth (MHB, Catalog #212332, BD BBL™), 100 μL of which was added to the round bottom 96-well plate containing the drug. The plate was inverted and incubated at 37° C. for 20-24 hours, and the MIC value was read. The lowest drug concentration that inhibits bacterial growth was defined as MIC.

Series [1] deals with K. pneumoniae ATCC BAA-1705. The series is described as above. The class given is cell-based. The conditions noted are these: Klebsiella pneumoniae, ATCCBAA1705. As to the method:
as §1

The next series relates to E. coli ATCC 25922. Described as above. The class given is cell-based. The conditions noted are these: Escherichia coli, ATCC25922. As to the method:
as §1

Series [2] can be described thus: Study on pharmacokinetics in mice. In kind it is in vivo, CD-1 mice. Conditions: mouse, plasma, CD-1 male mice, 1 mg/kg single intravenous injection. As to the method:
CD-1 male mice aged 7 to 10 weeks were selected and treated by intravenous administration at the dose of 1 mg/kg. The mice were fasted for at least 12 hours before the administration, and resumed feeding 4 hours after the administration. The mice were free to drink during the entire experiment.
On the day of the experiment, the animals in the intravenous group were administered with corresponding compound by a single injection via tail vein with an administration volume of 5 mL/kg. The animals were weighed before the administration, and the administration volume was calculated based on the body weight. The sample collection time was: 0.083, 0.25, 0.5, 1, 2, 4, 8, and 24 h. Approximately 30 μL whole blood was collected through the saphenous vein at each time point to prepare plasma for high performance liquid chromatography-tandem mass spectrometry (LC-MS/MS) to determine the concentration.
All animals were subjected to euthanasia under CO2 anesthesia after the PK samples at the last time point were collected. The non-compartmental model of the pharmacokinetic software WinNonlin™ Version 6.3 (Pharsight, Mountain View, CA) was used to process the data of plasma concentration, and the linear log-trapezoidal method was used to calculate the pharmacokinetic parameters.

Series [3] has as its system E. coli ATCC-25922 (Enterobacteria ATCC-25922). The experiment in a line: Drug efficacy in mice (mouse thigh muscle model). The class given is in vivo. Conditions: CD-1 mice, 30 mpk subcutaneously 2 h and 10 h after infection, read at 24 h; FIG. 1. As to the method: 12 female CD-1 mice were divided into 4 cages, 3 mice per cage, and were injected intraperitoneally with the immunosuppressant cyclophosphamide (150 mpk).
24 hours later, 4 cages of mice were injected intraperitoneally again with the immunosuppressant cyclophosphamide (100 mpk). The strain E. coli ATCC-25922 (Enterobacteria ATCC-25922) was recovered on a MHA plate. The recovered colonies were picked and dissolved in saline to prepare E. coli ATCC-25922 bacterial solution with a concentration of 1.00E+07 CFU/mL for later use in mouse thigh muscle infection. The amount of bacterial solution injected into the thigh muscle of experimental mice was […], that is, the inoculation amount was 1.00E+06 CFU/mouse. […]
The specific administration of mice was as follows: • (1) 2 h after infection: At the end of 2 h infection, the thigh muscle tissue of the mice in the first cage was taken and placed in 10 mL saline, homogenized, and dotted on a plate with gradient dilution, two duplications for each mouse. The amount of bacteria loaded in the thigh muscle tissue of the mouse was counted. […] The amount of bacteria loaded in the thigh muscle tissue of the mouse was counted, and the experimental results were summarized and shown in FIG. 1.

For `CN[C@@H]1[C@@H](O)[C@@H](O[C@@H]2[C@@H](O)[C@H](O[C@H]3OC(CNCCOCCONC(=N)N)=CC[C@H]3N)[C@@H](N)C[C@H]2NC(=O)[C@@H](O)CCN)OC[C@]1(C)O` [Compound 1], the minimal inhibitory concentration (MIC) – broadly, the smallest concentration in the dilution series that meets the test's criterion for growth inhibition – is 2 µM (≈ 1.39 µg/mL) with E. coli ATCC BAA-2523, 4 µM (≈ 2.78 µg/mL) in series [1] and 2 µM (≈ 1.39 µg/mL) with E. coli ATCC 25922. In series [2] (read-out: Area Under the Curve AUC), the area under the curve (AUC) (in general, the area under the concentration-time curve, a measure of exposure) was 1.92 µM·h. The clearance (commonly a measure of how efficiently the substance is removed, as volume per time) in series [2] (read-out: Clearance Rate Cl) was found to be 15.1 mL/min/kg. Also, the half-life in series [2] (read-out: Half-Life T1/2 (converted)) was 23.8 min. Besides, the Cmax in series [2] (read-out: Maximum Concentration Cmax) was 7.09 µM. In addition, the distribution volume (Vd) (as a rule, the apparent volume that relates the amount in the body to the concentration in plasma or blood) in series [2] (read-out: Volume of Distribution Vd) was 0.369 L/kg. Moreover, in series [3], the “in vivo efficacy (bacteria loaded in thigh muscle tissue), compared with Plazomicin” value is “better in vivo efficacy than Plazomicin”.
